This note sets out measurements from US7572800B2, “Combination therapy to treat hepatitis B virus” (Gilead Sciences, Inc., priority 1998, dated 2009).

The test system of one data set is HBV. Nature of the data set: Antiviral evaluation: extracellular (virion) HBV DNA levels produced by 2.2.15 cells. Format: cell-based, hepatitis B virus. To be noted: for depression of extracellular (virion) HBV DNA levels: 9 consecutive daily doses. Here is the method: Details of the assay methodology can be found in: Korba and Gerin, Antiviral Res. 19: 55-70 (1992) and Korba, Antiviral Res. 29: 49-52 (1996). The antiviral evaluations were performed on six separate cultures per each of four test concentrations. All wells, in all plates, were seeded at the same density and at the same time.
Due to the inherent variations in the levels of both intracellular and extracellular HBV DNA, only depressions greater than 3.0-fold for HBV virion DNA from the average levels for these HBV DNA forms in untreated cells are generally considered to be statistically significant [P<0.05] (Korba and Gerin, Antiviral Res. 19: 55-70, 1992). Typical values for extracellular HBV virion DNA in untreated cells range from 80 to 150 pg/ml culture medium (average of approximately 92 pg/ml).
For reference, the manner in which the hybridization analyses were performed for these experiments results in an equivalence of approximately 1.0 pg of extracellular HBV DNA/ml culture medium to 3×10^5 viral particles/ml.
For the antiviral test analyses, confluent cultures were maintained on 96-well flat bottomed tissue culture plates. Two separate (replicate) plates were used for each drug treatment. A total of 3 cultures on each plate were treated with each of the dilutions of antiviral agents (6 cultures per dilution). Cultures were treated with 9 consecutive daily doses of the test compounds. Medium was changed daily with fresh test compounds. Only extracellular (virion) HBV DNA levels were followed.

A further data set concerns 2.2.15 cells. Nature of the data set: Toxicity analysis by uptake of neutral red dye. To be noted: at the concentrations used for the antiviral evaluations.

As for `Nc1nc2c(ncn2C2COC(CO)O2)c(=O)[nH]1` (stereo not drawn) [DXG], the “depression of extracellular (virion) HBV DNA levels” value (“depression of extracellular” below) with HBV was “significant and selective depressions”.
For the compound `Nc1nc(=O)n([C@@H]2CS[C@H](CO)O2)cc1F` [FTC, β-2-Hydroxymethyl-5-(5-fluorocytosin-1-yl)-1,3-oxathiolane], in the data set on 2.2.15 cells, the “toxicity (greater than 50% depression of neutral red dye uptake levels observed in untreated cells)” value is reported as “No significant toxicity”. In addition, in the data set on HBV, the “anti-HBV activity/potency compared with previous reports or earlier analyses” value is on record as “lower than that observed in earlier analyses”; the “depression of extracellular” value is “significant and selective depressions”.
As for `Nc1ccn([C@@H]2CS[C@H](CO)O2)c(=O)n1` [3TC, (−)β,L,2′,3′-dideoxy-3′thiacytidine], the “toxicity (greater than 50% depression of neutral red dye uptake levels observed in untreated cells)” value in the data set with 2.2.15 cells is on record as “No significant toxicity”.
Take `Nc1nc2c(ncn2CCC(CO)CO)c(=O)[nH]1` [PCV, 2-amino-1,9-dihydro-9-[4-hydroxy-3-(hydroxymethyl)butyl]-6H-purin-6-one, reference compound]: the “toxicity (greater than 50% depression of neutral red dye uptake levels observed in untreated cells)” value in the data set on 2.2.15 cells is recorded as “No significant toxicity”. Besides, in the data set on HBV, the “anti-HBV activity/potency compared with previous reports or earlier analyses” value was “higher than previously reported” and the “depression of extracellular” value is recorded as “significant depressions”.
With `Nc1nc(N)c2ncn([C@H]3CO[C@@H](CO)O3)c2n1` [DAPD], in the data set on HBV, the “anti-HBV activity/potency compared with previous reports or earlier analyses” value was “lower than that observed in earlier analyses”; the “depression of extracellular” value was “significant and selective depressions”.
As for `Cc1cn([C@H]2O[C@@H](CO)[C@H](O)[C@H]2F)c(=O)[nH]c1=O` [L-FMAU, 2′-fluoro-5-methyl-β-L-arabinofuranolyluridine], in the data set on HBV, the “anti-HBV activity/potency compared with previous reports or earlier analyses” value is given as “lower than that observed in earlier analyses”; the “depression of extracellular” value is “significant and selective depressions”.
